The results in this text go back to patent US20210017607A1, “Methods of Predicting Responsiveness to Cancer Therapies” (The University of Chicago, priority 2019, published 2021).

The subject of one experiment is ID8 ovarian cancer cells. The experiment in a line: ID8 cells in vitro STING pathway activation (western, ImageStream, ELISA). The class given is cell-based, mouse. The following applies: for STING pathway activation within ID8-PTEN^−/− cells / IFNB1 levels in combination with STING agonist DMXAA, ID8-PTEN^−/− cells: 36 hours; for IFNB1 levels in combination with STING agonist DMXAA, ID8-PTEN^−/− cells: ELISA. How it is done:
FIGS. 56A and 56B. […] (56A) PTEN-proficient (PTEN^+/+) and deficient (PTEN^−/−) ID8 ovarian cancer cells were treated with DMXAA (50 μg/mL) for 0, 1, 6, 12, 24 and 36 hours. Nuclear extracts were probed for localization of p-IRF3 and p-NF-kB, markers of STING pathway activation. n=1 independent experiment. (56B) Wild-type (PTEN^+/+) and PTEN-deficient (PTEN^−/−) Myc-CAP (prostate) and ID8 (ovarian) cancer cells were treated with DMXAA (50 μg/mL) for 36 hours. The supernatants were analyzed by ELISA for IFN-β1 release. n=3 independent experiments.
FIGS. 57A-57C. […] PTEN-proficient (PTEN+/+) and deficient (PTEN−/−) ID8 ovarian cancer cells were treated with DMXAA (50 μg/mL) for 0, 12, 24 and 36 hours. (57A) The nuclear localization of p-IRF3 and p-NFkB was analyzed by ImageStream. The overlap of the two generates a white color that scores for nuclear localization of pIRF3. (57B) Graphical representation of nuclear localization of pIRF3 and p-NF-kB at 12, 24, and 36 hours after DMXAA treatment, relative to untreated groups in ID8 wild-type and PTEN^−/− cells. n=3 independent experiments.
FIGS. 58A and 58B. […] (58A) PTEN-proficient (PTEN^+/+) and deficient (PTEN^−/−) ID8 ovarian cancer cells were treated with IC90 concentrations of pan-PI3K inhibitors, either copanlisib (100 nM) or BKM120 (1000 nM) for 36 hours in presence or absence of STING agonists, DMXAA (50 μg/mL, 1 hour at the end of experiment). The activation status of both PI3K and STING signaling pathways were probed with the indicated antibodies by western blotting. n=2 independent experiments. (58B) Cells were treated as described in (58A), with the exception that concomitant DMXAA treatment was carried out for 36 hours. The supernatants were analyzed by ELISA for IFN-β1 release. n=3 independent experiments.
Cytokine Array/IFNβ1 ELISA. Supernatants from untreated or drug treated cancer cell lines and bone marrow derived macrophages were collected at 36 hours and spun down at 2000×g for 5 min at 4° C. to remove cellular debris. These clear supernatants were processed for detection of Type I Interferon by ELISA (LEGEND MAX™ Mouse IFNβ1 ELISA, Biolegend®) or for determination of a panel of cytokines/chemokines using LEGENDplex™ array (Mouse Anti-Virus Response Panel, Biolegend®) as per instructions in protocol provided.
Western blotting. RIPA buffer (Boston BioProducts) supplemented with protease (Roche®) and HALT phosphatase inhibitor cocktail (Thermo Scientific®) was used for preparation of total cell lysates. For western blotting, the following antibodies were used from Cell Signaling Technology®: Polyclonal rabbit anti-mouse-, phospho-AKT, total AKT, c-GAS, STING, phospho-IRF3, total IRF3, phospho-TBK1, total TBK1, PTEN, phospho NF-kB, total NF-kB, p53, lamin B1, β-actin, alpha-tubulin, and GAPDH. Images of scanned blots were processed using ADOBE Photoshop.
Image Stream Analysis. PTEN-proficient and deficient ID8 ovarian cancer cells were treated with DMXAA (50 ug/mL) for 0, 12, 24, and 36 hours. After termination at endpoints, cells were stained with primary antibodies—anti-mouse p-IRF3 (Cell Signaling Technology®), p-NFkB (Cell Signaling Technology®), followed by incubation with flurochrome tagged secondary antibodies and DAPI. Images of nuclear localization of p-IRF3 and p-NF-kB within single cells were acquired using ImageStreamg®^x Mark II (Amnis®) and data obtained was analyzed using IDEAS® software.

Experiment [1] in a line: IC90 concentrations stated for in vitro/ex vivo drug treatments. The following applies: for IC90: read-out: IC90 concentration.
The test system of experiment [2] is Myc-CAP (STING^lo) tumors. The experiment in a line: Myc-CAP syngeneic tumor growth. The class given is in vivo, mouse. The following applies: immunocompetent syngeneic mice. How it is done: FIGS. 25A and 25B. […] (25A-25B) Myc-CAP (STING^lo) tumor-bearing syngeneic mice were treated with the indicated drug(s) until untreated tumors reached approx. 2500 mm^3. Tumor volume curves for duration of treatment are shown.
FIGS. 26A-26D. […] Immunodeficient athymic nude (26A) and NOD-SCID (26B) mice were engrafted with Myc-CAP (STING^lo) tumors and treated with the indicated drug(s) until untreated tumors reached approx. 2000 mm^3. Tumor volume curves for duration of treatment are shown. For 26A-26B, n=3-4 mice per group. (26C-26D) Single-cell suspensions were generated from harvested tumors and analyzed by flow cytometry for the indicated immune cell populations and their activation states. Data are represented relative to CD45+ immune cells. For 26C-26D, n=3-5 animals per treatment group from 2 independent experiments. Significance/p-values were calculated by […].
FIGS. 29A-29M. […] Myc-CAP cancer cells were treated with the indicated drugs singly or in combination for 36 hours. (29A) Cells were stained with anti-mouse specific p-γH2AX antibody and a fluorescently labeled secondary antibody for determination of DNA DSBs, which were quantified by confocal microscopy. (29B) Protein extracts from cells in 29A were analyzed for the indicated pharmacodynamic biomarkers by western blotting; (29C) Annexin V-PI staining was done to assess frequency of live cells (Annexin V^− PI^−) following drug treatment. (29D) Ultracentrifugation was utilized to purify microvesicles (MVs) from supernatants in treatment groups in (29A) and associated DNA DSBs was quantified by Nanodrop®. Independent experiments n=2. (29E) Ultracentrifugation was utilized to purify MVs from supernatants in indicated treatment groups in FIG. 17A, and associated DNA DSBs were quantified by Nanodrop®; n=2 independent experiments. (29F) Syngeneic mice were engrafted with Myc-CAP (STING^lo) cells, and tumors were harvested when the tumor volume reached 400 mm^3. Single cell suspensions of the tumors were treated with the indicated drug(s), in the presence or absence of GW4869 (MV biogenesis inhibitor). (29G) Bone marrow derived macrophage (BMDMs) were co-cultured for 30 hours with supernatants (−/+ exogenous 50 units of DNase I pre-treatment for 30 minutes) from Myc-CAP cells that were treated with the indicated drug(s) for 36 hours. (29H) cGAMP (10 μg/mL) was pre-incubated with 10 units of DNAse I or mock control for 30 minutes and then added to BMDMs for 30 hours. (29I-29L) STING^+/+/STING^−/− BMDMs were co-cultured for 36 hours with supernatants from Myc-CAP and B6-Myc cancer cells that were treated with the indicated drug(s) for 36 hours. Supernatants were collected from 29F-29L at the end of treatment and analyzed for IFNβ1 by ELISA. (29M) Myc-CAP (STING^lo) tumor-bearing mice were treated with the indicated drug(s) until tumors first reached approx. 2500 mm^3. For the degerelix/rucaparib/buparlisib combination, additional cohorts of mice underwent concomitant treatment with STING antagonist H-151 or GW4869. Tumor volume was recorded daily for duration of experiment. For in vitro experiments, n=2 independent experiments and for in vivo experiments n=3-4 animals /group.

Setting [3] is: FIG. 38, Myc-CAP-PTEN+/+ and PTEN−/− tumor suspensions.
Where [4] appears, read: FIG. 50, Myc-CAP-PTEN^−/− tumor suspensions.
Where [5] appears, read: FIG. 58, ID8 ovarian cancer cells.

Values after ≈ are worked out from the molar mass of the structure shown. Where two headings read alike, the source gives them in different places.

`Cc1ccc2c(=O)c3cccc(CC(=O)O)c3oc2c1C` [DMXAA, 5,6-Dimethylxanthenone-4-acetic Acid]: in the experiment on ID8 ovarian cancer cells (DMXAA 50 μg/mL), the “STING pathway activation after PTEN knockdown” value is given as “abrogates STING pathway activation”. Moreover, the “IRF3 translocation to the nucleus after PTEN knockdown” value in the experiment with ID8 ovarian cancer cells (DMXAA 50 μg/mL, 0-36 hours) is given as “abolishes IRF3 translocation to the nucleus”. In addition, the IC90 concentration in experiment [1] (setting [3]) and in experiment [1] (setting [4]) was 50 µg/mL (≈ 177 µM) in each case.
In the case of `Nc1cc(C(F)(F)F)c(-c2cc(N3CCOCC3)nc(N3CCOCC3)n2)cn1` [buparlisib], in the experiment on ID8 ovarian cancer cells, the “STING pathway activation within ID8-PTEN^−/− cells” value is reported as “partially restore STING pathway activation” and the “IFNB1 levels in combination with STING agonist DMXAA, ID8-PTEN^−/− cells” value is given as “unable to rescue IFNB1 levels”. The IC90 in experiment [1] (setting [3]) came to 1000 nM. For the same molecule, in experiment [1] (setting [5]), the IC90 was found to be 1000 nM. In experiment [2], the tumor growth response result is reported as “not observed”.
As to `COc1c(OCCCN2CCOCC2)ccc2c1N=C(NC(=O)c1cnc(N)nc1)N1CCN=C21` [copanlisib], the “STING pathway activation within ID8-PTEN^−/− cells” value in the experiment with ID8 ovarian cancer cells is on record as “partially restore STING pathway activation”. The “IFNB1 levels in combination with STING agonist DMXAA, ID8-PTEN^−/− cells” value in the experiment on ID8 ovarian cancer cells was “unable to rescue IFNB1 levels”. Besides, the IC90 in experiment [1] (setting [4]) was determined as 500 nM; in experiment [1] (setting [5]), 100 nM; in experiment [1] (Myc-CAP-PTEN^−/− cells in vitro (FIG. 35)), 100 nM.
As to `CNCc1ccc(-c2[nH]c3cc(F)cc4c3c2CCNC4=O)cc1` [rucaparib], the IC90 in experiment [1] (setting [3]) came to 500 nM. In addition, the tumor growth response entry in experiment [2] is given as “not observed”.
